Laboratory results taken from PubChem BioAssay (NCI).
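Tested at 5 concentrations; 48 h exposure; 96-well plates; endpoints linearly interpolated, else capped at highest concentration. GI50: concentration for 50% inhibition of growth. At the TGI there is no net growth.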

What was measured:
Test in all cases: growth of human tumour cells (NCI), 48 h
[1] = tested on: 786-0 renal
[2] = tested on: A498 renal
[3] = tested on: A549 NSCLC
[4] = tested on: ACHN renal
[5] = tested on: BT-549 breast
[6] = tested on: CAKI-1 renal
[7] = tested on: COLO 205 colon
[8] = tested on: DU-145 prostate
[9] = tested on: EKVX NSCLC
[10] = tested on: HCC-2998 colon
[11] = tested on: HCT-116 colon
[12] = tested on: HCT-15 colon
[13] = tested on: HOP-62 NSCLC
[14] = tested on: HOP-92 NSCLC
[15] = tested on: HS 578T breast
[16] = tested on: HT29 colon
[17] = tested on: IGROV1 ovarian
[18] = tested on: KM12 colon
[19] = tested on: LOX IMVI melanoma
[20] = tested on: M14 melanoma
[21] = tested on: MALME-3M melanoma
[22] = tested on: MCF7 breast
[23] = tested on: MDA-MB-231 breast
[24] = tested on: MDA-MB-435
[25] = tested on: NCI-H226 lung
[26] = tested on: NCI-H23 lung
[27] = tested on: NCI-H460 lung
[28] = tested on: NCI-H522 lung
[29] = tested on: NCI/ADR-RES ovarian
[30] = tested on: OVCAR-3 ovarian
[31] = tested on: OVCAR-4 ovarian
[32] = tested on: OVCAR-5 ovarian
[33] = tested on: OVCAR-8 ovarian
[34] = tested on: PC-3 prostate
[35] = tested on: RPMI-8226 leukemia
[36] = tested on: RXF 393 renal
[37] = tested on: SF-268 CNS
[38] = tested on: SF-295 CNS
[39] = tested on: SF-539 CNS
[40] = tested on: SK-MEL-2 melanoma
[41] = tested on: SK-MEL-28 melanoma
[42] = tested on: SK-MEL-5 melanoma
[43] = tested on: SK-OV-3 ovarian
[44] = tested on: SN12C renal
[45] = tested on: SNB-19 CNS
[46] = tested on: SNB-75 CNS
[47] = tested on: SW-620 colon
[48] = tested on: T-47D breast
[49] = tested on: TK-10 renal
[50] = tested on: U251 CNS
[51] = tested on: UACC-257 melanoma
[52] = tested on: UACC-62 melanoma
[53] = tested on: UO-31 renal

## C(=N/N(Cc1ccccc1)Cc1ccccc1)/c1ccccc1
[1]
  GI50: > 100 µM
  TGI: > 100 µM
[2]
  GI50: 94.9 µM
  TGI: > 100 µM
[3]
  GI50: > 100 µM
  TGI: > 100 µM
[4]
  GI50: > 100 µM
  TGI: > 100 µM
[5]
  GI50: > 100 µM
  TGI: > 100 µM
[6]
  GI50: > 100 µM
  TGI: > 100 µM
[7]
  GI50: > 100 µM
  TGI: > 100 µM
[8]
  GI50: > 100 µM
  TGI: > 100 µM
[9]
  GI50: 59.3 µM
  TGI: > 100 µM
[10]
  GI50: > 100 µM
  TGI: > 100 µM
[11]
  GI50: 26.1 µM
  TGI: > 100 µM
[12]
  GI50: > 100 µM
  TGI: > 100 µM
[13]
  GI50: > 100 µM
  TGI: > 100 µM
[14]
  GI50: 53.3 µM
  TGI: > 100 µM
[15]
  GI50: 51.1 µM
  TGI: > 100 µM
[16]
  GI50: 24.7 µM
  TGI: > 100 µM
[17]
  GI50: > 100 µM
  TGI: > 100 µM
[18]
  GI50: > 100 µM
  TGI: > 100 µM
[19]
  GI50: > 100 µM
  TGI: > 100 µM
[20]
  GI50: 90.1 µM
  TGI: > 100 µM
[21]
  GI50: 41.1 µM
  TGI: > 100 µM
[22]
  GI50: 42.9 µM
  TGI: > 100 µM
[23]
  GI50: > 100 µM
  TGI: > 100 µM
[24]
  GI50: 77.3 µM
  TGI: > 100 µM
[25]
  GI50: > 100 µM
  TGI: > 100 µM
[26]
  GI50: 90.8 µM
  TGI: > 100 µM
[27]
  GI50: > 100 µM
  TGI: > 100 µM
[28]
  GI50: > 100 µM
  TGI: > 100 µM
[29]
  GI50: > 100 µM
  TGI: > 100 µM
[30]
  GI50: > 100 µM
  TGI: > 100 µM
[31]
  GI50: > 100 µM
  TGI: > 100 µM
[32]
  GI50: > 100 µM
  TGI: > 100 µM
[33]
  GI50: > 100 µM
  TGI: > 100 µM
[34]
  GI50: > 100 µM
  TGI: > 100 µM
[35]
  GI50: 51.8 µM
  TGI: > 100 µM
[36]
  GI50: 66.3 µM
  TGI: > 100 µM
[37]
  GI50: > 100 µM
  TGI: > 100 µM
[38]
  GI50: 44.5 µM
  TGI: > 100 µM
[39]
  GI50: > 100 µM
  TGI: > 100 µM
[40]
  GI50: 25 µM
  TGI: 72.6 µM
[41]
  GI50: > 100 µM
  TGI: > 100 µM
[42]
  GI50: 55.4 µM
  TGI: > 100 µM
[43]
  GI50: > 100 µM
  TGI: > 100 µM
[44]
  GI50: > 100 µM
  TGI: > 100 µM
[45]
  GI50: > 100 µM
  TGI: > 100 µM
[46]
  GI50: > 100 µM
  TGI: > 100 µM
[47]
  GI50: > 100 µM
  TGI: > 100 µM
[48]
  GI50: 72.4 µM
  TGI: > 100 µM
[49]
  GI50: > 100 µM
  TGI: > 100 µM
[50]
  GI50: > 100 µM
  TGI: > 100 µM
[51]
  GI50: 96.9 µM
  TGI: > 100 µM
[52]
  GI50: 75 µM
  TGI: > 100 µM
[53]
  GI50: > 100 µM
  TGI: > 100 µM
